The subject of one assay is gastric acid secretion. Kind of assay: Inhibition of gastric acid secretion in dogs, histamine at fixed dose of 160 μg/kg/h, oral. The format is in vivo, mongrel dogs. Particulars: histamine fixed dose 160 μg/kg/h. The procedure:
The compounds of the present invention are also potent inhibitors of the gastric secretion when they are administered to laboratory animals by the oral route. […] The gastric antisecretory properties of these compounds when administered per os were evaluated on the basis of their effectiveness in inhibiting the hyperacidity induced by histamine in dogs. Histamine, which is a potent stimulator of the acidic gastric secretion (see Bertaccini et al., Eur. Journ. Pharmacol., 28, 360, 1974), was administered intravenously by continuous infusion during the experiments.
A group of five mongrel dogs was used in the experiment. […]
To evaluate the gastric antisecretory oral activity of the compounds of the invention, they were administered by gavage into the main stomach at a given dosage, expressed as μg/kg/h, dissolved in 1 ml of physiological solution, 60 minutes before the secreting agent. […]
The compounds of the present invention are potent inhibitors of also gastric hypersecretion also when administered intravenously. […] The pH of the fluid emerging from a cannula in the pylorus is continuously recorded by means of a glass-electrode connected to a direct reading pH-meter and thence to a recorder. […]

Assay [1] has as its system gastric hypersecretion induced by histamine. Kind of assay: Inhibition of histamine-induced gastric hypersecretion in anesthetized perfused-stomach rats (Ghosh and Schild), intravenous. The format is in vivo. To be noted: i.v., histamine 1.5 mg/kg/h. As for the experimental part:
The compounds of the present invention are potent inhibitors of also gastric hypersecretion also when administered intravenously. This has been confirmed by evaluating the effects, on gastric hypersecretion induced by histamine, produced by a single intravenous administration to anesthetized rats of the compounds of the present invention. The experiments were carried out essentially according to the methodology described by Ghosh and Schild in Brit. J. Pharm. (1958), 13, 54-61. According to this technique the rat is anesthetized with urethane and its stomach is perfused with a dilute sodium hydroxide solution (N/4000 NaOH at a rate of about 1 ml/min) by way of the oesophagus. The pH of the fluid emerging from a cannula in the pylorus is continuously recorded by means of a glass-electrode connected to a direct reading pH-meter and thence to a recorder. In passing through the stomach, the perfusate collects sufficient buffer to act as an approximately linear buffer system over the relevant range, so that the change in pH becomes a measure of acid secretion.
When the N/4000 NaOH solution is collected after having passed through the unstimulated stomach it gives an initial value of about 6-6.5 (pHunstimulated stomach). A secretory stimulant, histamine in the present case, is then administered intravenously by continuous infusion at a dose of 1.5 mg/kg/h. After a few minutes the pH begins to fall and after about 10 to 20 minutes the secretory effect reaches its maximum and the pH its lowest value (pHhistamine stimulated stomach) which, owing to the continuous infusion of histamine, remains constant. The compounds to be tested are then administered intravenously and the pH is continuously recorded. By considering the highest pH value recorded, which evidences the maximum antisecretory effect reached with the test compound (pHM.A.E.) and using the following equation [formula] the percent inhibition of gastric acid secretion may be easily calculated.

Assay [2] deals with gastric ulcers caused by indomethacin. Kind of assay: Cytoprotective activity: inhibition of gastric ulcers caused by indomethacin in rats, oral. The format is in vivo. Particulars: indomethacin i.p. As for the experimental part:
More particularly, the cytoprotective activity of the compounds of the present invention was evaluated on the basis of their effectiveness in inhibiting the formation and reducing the severity of gastric ulcers in rats caused by the administration of a high dose of 1-(p-chlorobenzoyl)-5-methoxy-2-methyl-3-indolyl-acetic acid (indomethacin). The cytoprotective activity occurred at oral doses which are by far lower than those which cause inhibition of the gastric acid secretion. In these experiments the rats were deprived of food the day before the beginning of the experiments but water was given ad libitum. The compounds to be tested were administered by the oral route as a suspension in 0.5% aqueous methocel solution (5 animals/dose), while indomethacin was administered intraperitoneally at […] in the same vehicle. Another group of rats (controls) was administered only with the ulcerogenic agent. The cytoprotective properties of the compounds of this invention were then expressed as "percent inhibition of the ulcers with respect to controls", which can be easily calculated by the following ratio: [formula] wherein A.U.D.(controls) is the average ulceration degree of the stomachs of the controls and A.U.D.(treated animals) is the average ulceration degree of the stomachs of the animals which received both indomethacin and the compound to be tested.
The A.U.D.s are calculated according to the method described by Thuillier et al. Chim. Ther., 3, 53, 1968, by examining the stomachs of the laboratory animals for possible ulcerations and assigning a score from 0 to 4 which depends on the number and the severity of the observed ulcerations: 0 indicates absence of any ulceration on the gastric wall; 4 indicates perforating ulcerations. A single ulceration degree (S.U.D.) is then calculated for each single stomach. The sum of the S.U.D.s divided by the number of the animals affords the A.U.D. of the stomachs of each group of animals.

Here are results for 1 compound from patent US4547521A, “16-Methoxy-16-methyl prostaglandin E1 derivatives, a process for preparing them and their use as gastroprotective agents” (Gruppo Lepetit S.p.A., priority 1979, dated 1985).

By ED50 is commonly meant the dose at which the effect has come halfway, by size or by number of responders. Turning to `CCCCC(C)(OC)C(O)/C=C/[C@H]1[C@H](O)CC(=O)[C@@H]1CCCCCCC(=O)OC` (single isomer, unassigned) [Example 1F, 11α,15-dihydroxy-16-methoxy-16-methyl-9-oxo-prosta-13(E)-ene-1-oic acid methyl ester], the “block of gastric acid secretion” value in the assay with gastric acid secretion was “about 60%”. In addition, the “% Inhibition of the acid gastric secretion” value in assay [1] (2.5 μg/kg) is on record as 15%; in assay [1] (10 μg/kg) it was 63%; in assay [1] (20 μg/kg) it was 90%; in assay [1] (50 μg/kg) it was 100%. Further, the “percent inhibition of the ulcers with respect to controls” value in assay [2] (3 μg/kg (lowest dose tested)) is on record as “about 43%”. Besides, the ED50 in assay [2] (Rattus norvegicus, calculated by extrapolation, read-out: ED50 (dose which provokes an inhibition of the ulcers with respect to controls of 50%)) was 6 µg/kg. For the same compound, the “cytoprotective activity (in words)” value in assay [2] is given as “very active even at very low doses”.
